Source: patent US10633420B2, “Antimicrobial peptides with wound healing activity” (priority 2016, dated 2020)
Values after ≈ are worked out from the molar mass of the structure shown. Where two headings read alike, the source gives them in different places. No end group written: not given here.

What was measured:
HEKa cells = test: In vitro scratch wound closure assay; type: cell-based, human; settings: 10 μg/ml DRGN-1; 20 μM mitomycin C or 0.2 μM AG1478 pretreatment
Method: In vitro scratch wound closure assays: In vitro wound closure was assayed in confluent cell monolayers of HEKa (Invitrogen) as described elsewhere (Kim et al., Amino Acids 46:2333-2343, 2014). Cells were seeded in 6-well plates (Corning, N.Y., USA) and grown until they reached confluence (48 hours) in EpiLife medium supplemented with HKGS. Cells were starved for 18 hours in EpiLife without HKGS and then scratched once vertically with a 200-μl pipette tip to create an artificial wound. For inhibitor studies, mitomycin C (20 μM final) and AG1478 (0.2 μM final) were added 90 minutes and 10 minutes prior to scratch generation. After being washed twice with PBS to remove cellular debris, cells were treated with DRGN-1, VK25 or LL-37. PBS was used as a negative control. Cells were photographed before peptide treatment and 7 hours and 24 hours after peptide treatment using an EVOS® Cell Imaging Systems (Invitrogen). The same image fields were captured and the wound areas were estimated using ImageJ software (Schneider et al., Nat Methods 9:671-675, 2012).

[1] = test system: P. aeruginosa PAO1 (pTDK-GFP)
sheep erythrocytes = test: Hemolytic activity; type: cell-based; settings: high concentration
Method: FIG. 4 is a graph plotting hemolytic activity of CAMPs. A fresh sheep erythrocyte suspension was incubated with the indicated peptides. Hemoglobin release into the supernatant was measured by absorbance at 567 nm to indicate membrane damage of erythrocytes.

P. aeruginosa ATCC 9027 = settings: ATCC 9027, 3 h, pH 7.4
S. aureus ATCC25923 = settings: ATCC25923, 3 h, pH 7.4
E. coli O157:H7 = settings: 3 hours, 10 mM sodium phosphate buffer pH 7.4
[2] = test system: adult human epidermal keratinocytes (HEKa) cells; test: MTT assay; type: cell-based; settings: for Toxic effects on metabolically active HEKa cells (MTT): 12.5˜100 μg/ml
Method: MTT assay: The toxic effect of the peptides on adult human epidermal keratinocytes (HEKa) cells was evaluated using the MTT (3-(4,5-dimethylthiazolyl-2)-2,5-diphenyltetrazolium bromide) colorimetric method (Di Grazia et al., Antimicrob Agents Chemother 58:2520-2527, 2014). The color intensity of the MTT is directly proportional to the number of metabolically active cells. Keratinocytes were plated in triplicate wells of a 96-well plate, at 4×10^4 cells/well in EpiLife medium supplemented with HKGS. After overnight incubation at 37° C. in a 5% CO2 atmosphere, the plate was incubated with the peptides at different concentrations for 2 hours, and 0.5 mg/ml of MTT was added. After 4 hours of incubation, formazan crystals were dissolved by adding 100 μl of acidified isopropanol, and the absorbance of each well was measured at 570 nm using a microplate reader (PowerWave X; BioTek, Winooski, Vt.).

P. aeruginosa PAO1 = settings: PAO1, 3 h, pH 7.4
F. novicida U112 = settings: 3 hours, 10 mM sodium phosphate buffer pH 7.4
[3] = test system: Gram-negative P. aeruginosa and E. coli and the Gram-positive S. aureus
[4] = test system: S. aureus SH1000 (pAH9-RFP); settings: 3 hours, 10 mM sodium phosphate buffer pH 7.4
[5] = test system: internalized P. aeruginosa ATCC 9027 in HEKa keratinocytes; test: P. aeruginosa-infected HEKa keratinocytes; type: cell-based, Pseudomonas aeruginosa; settings: 30 μg/ml, 2 hours
Method: Cell infection: Adult human epidermal keratinocytes HEKa (Invitrogen, Carlsbad, Calif.) cells were seeded in 24-well plates (Corning) and grown until they reached confluence (48 h) in EpiLife medium (Thermo Scientific) supplemented with human keratinocyte growth supplements (HKGS) containing 0.2% v/v bovine pituitary extract, 5 μg/ml bovine insulin, 0.18 μg/ml hydrocortisone, 5 μg/ml bovine transferrin, and 0.2 ng/ml human epidermal growth factor (EGF) (Invitrogen). The bacterial strain P. aeruginosa ATCC 9027 was grown in brain heart infusion (BHI) media at 37° C. with mild shaking and then harvested by centrifugation. Bacterial suspension (MOI 10) in EpiLife medium was co-incubated with keratinocytes for 2 hours at 37° C. and 5% CO2. The medium was aspirated and the cells were washed three times with PBS to remove non-adherent bacteria. In order to kill extracellular bacteria, cells were incubated for 1 hour in EpiLife without HKGS supplemented with 100 μg/ml of gentamicin. The medium was then aspirated and the infected cells were washed three times, as described above. Three hundred microliters of peptide solution (30 μg/ml) in EpiLife without HKGS was added to each well and the plate was incubated for 2 hours at 37° C. and 5% CO2. […] The CFU were counted after 24 hours at 37° C.

EGFR = test: Western blotting, EGFR phosphorylation; type: cell-based, human; settings: 0.2 μM AG1478, 10 minutes preincubation
Method: FIGS. 8A-8F indicate transactivation of the EGFR-STAT pathway by DRGN-1. Subconfluent keratinocytes were starved for 2 hours in HGKS-free medium and then stimulated with 10 μg/ml DRGN-1. For EGFR inhibition, cells were preincubated with 0.2 μM AG1478 for 10 minutes and subsequently treated with 10 μg/ml DRGN-1. The cells were harvested into lysis buffer at the indicated times. The phosphorylation of EGFR (p-EGFR) and STAT3 (p-STAT3) was analyzed by Western blotting (FIGS. 8A, 8B, 8D, and 8E). EGFR indicates total EGFR protein. FIGS. 8C and 8F are graphs plotting densitometric analyses of the expression of phosphoprotein relative to unphosphorylated proteins (pEGFR/EGFR, FIG. 8C; pSTAT3/STAT3, FIG. 8F).
Western blotting: Semifluent HEKa cells were serum-starved for 3 hours and then stimulated with 10 μg/ml DRGN-1 or HKGS for 5-30 minutes at 37° C. AG1478 (0.2 μM final) was added 10 minutes prior to DRGN-1 or HKGS treatment. Cells were lysed with 2×Laemmli sample buffer (Bio-Rad; Hercules, Calif.) containing 5 mM sodium fluoride and 2 mM sodium vanadate. Cell lysates were separated on a 4-12% SDS-PAGE gel and transferred to polyvinylidene difluoride membrane using an iBlot system (Invitrogen). The membranes were probed with antibodies specific to phospho-EGFR and EGFR (Cell Signaling). […]

[6] = 3 hours, 10 mM sodium phosphate buffer pH 7.4

| Compound | Effect on keratinocyte migration induced by DRGN-1 (HEKa cells) | EC50 [1, 6] [µg/mL] | Toxicity against erythrocytes (hemolysis) (sheep erythrocytes) | EC50 (P. aeruginosa ATCC 9027) [µg/mL] | EC50 (S. aureus ATCC25923) [µg/mL] | EC50 (E. coli O157:H7) [µg/mL] | Toxic effects on metabolically active HEKa cells (MTT) [2] | EC50 (P. aeruginosa PAO1) [µg/mL] | EC50 (F. novicida U112) [µg/mL] | EC50 [3] [nM] | EC50, range over strains [3] [µg/mL] | EC50 [4] [µg/mL] | Killing of internalized bacteria [5] [%] | EC50 ([1]; PAO1, 3 h, pH 7.4) [µg/mL] | HEKa cell viability (MTT) ([2]; 50˜100 μg/ml) | Effect on DRGN-1-induced EGFR phosphorylation (EGFR) |
| --- | --- | --- | --- | --- | --- | --- | --- | --- | --- | --- | --- | --- | --- | --- | --- | --- |
| CO[C@@]12[C@H](COC(N)=O)C3=C(C(=O)C(C)=C(N)C3=O)N1C[C@@H]1N[C@@H]12 [mitomycin C] | strongly inhibited |  |  |  |  |  |  |  |  |  |  |  |  |  |  |  |
| PSKKTKPVKPKKVA [DRGN-1, PSKKTKPVKPKKVA] |  | 7.10 | did not show any toxicity | 4.39 | 4.04 | 3.48 | devoid of toxic effects | 6.85 | >100 | 500 to 4620 | 0.77 to 7.1 | 0.77 | 36 |  |  |  |
| SPKKTKPVKPKKVA [VK25, SPKKTKPVKPKKVA] |  | >100 |  | >100 | >100 | >100 | devoid of toxic effects | >100 | >100 |  | > 100 | >100 |  |  |  |  |
| CC[C@H](C)[C@H](NC(=O)[C@H](CCCCN)NC(=O)[C@H](CCC(=O)O)NC(=O)[C@H](CCCCN)NC(=O)[C@H](CO)NC(=O)[C@H](CCCCN)NC(=O)[C@H](CCCNC(=N)N)NC(=O)[C@H](Cc1ccccc1)NC(=O)[C@H](Cc1ccccc1)NC(=O)[C@H](CC(=O)O)NC(=O)CNC(=O)[C@H](CC(C)C)NC(=O)[C@@H](N)CC(C)C)C(=O)NCC(=O)N[C@@H](CCCCN)C(=O)N[C@@H](CCC(=O)O)C(=O)N[C@@H](Cc1ccccc1)C(=O)N[C@@H](CCCCN)C(=O)N[C@@H](CCCNC(=N)N)C(=O)N[C@H](C(=O)N[C@H](C(=O)N[C@@H](CCC(N)=O)C(=O)N[C@@H](CCCNC(=N)N)C(=O)N[C@H](C(=O)N[C@@H](CCCCN)C(=O)N[C@@H](CC(=O)O)C(=O)N[C@@H](Cc1ccccc1)C(=O)N[C@@H](CC(C)C)C(=O)N[C@@H](CCCNC(=N)N)C(=O)N[C@@H](CC(N)=O)C(=O)N[C@@H](CC(C)C)C(=O)N[C@H](C(=O)N1CCC[C@H]1C(=O)N[C@@H](CCCNC(=N)N)C(=O)N[C@H](C(=O)N[C@@H](CCC(=O)O)C(=O)N[C@@H](CO)C(=O)O)[C@@H](C)O)C(C)C)[C@@H](C)CC)C(C)C)[C@@H](C)CC [LL-37, reference compound] |  |  |  | 1.08 (≈ 0.24 µM) |  |  |  |  |  | 50 to 600 | 0.24 to 2.7 |  |  | 2.69 (≈ 0.599 µM) | significant decrease |  |
| COc1cc2ncnc(Nc3cccc(Cl)c3)c2cc1OC [AG1478] | prevented cell migration |  |  |  |  |  |  |  |  |  |  |  |  |  |  | not observed in AG1478-treated cells |
